Measured values published in article PMC11597207, “Synthesis and Anti-Inflammatory and Analgesic Potentials of Ethyl 2-(2,5-Dioxo-1-Phenylpyrrolidin-3-yl)-2-Methylpropanoate” (Pharmaceuticals, 2024).

Experiments:
COX-1 = biological target: T1, COX-1 (Ovis aries, UniProt P05979); assay: COX-1 inhibitory assay; format: biochemical, sheep
T1 construct: purchased Cayman Chemical Batch No.: A4570
T1 sequence (P05979 25-600): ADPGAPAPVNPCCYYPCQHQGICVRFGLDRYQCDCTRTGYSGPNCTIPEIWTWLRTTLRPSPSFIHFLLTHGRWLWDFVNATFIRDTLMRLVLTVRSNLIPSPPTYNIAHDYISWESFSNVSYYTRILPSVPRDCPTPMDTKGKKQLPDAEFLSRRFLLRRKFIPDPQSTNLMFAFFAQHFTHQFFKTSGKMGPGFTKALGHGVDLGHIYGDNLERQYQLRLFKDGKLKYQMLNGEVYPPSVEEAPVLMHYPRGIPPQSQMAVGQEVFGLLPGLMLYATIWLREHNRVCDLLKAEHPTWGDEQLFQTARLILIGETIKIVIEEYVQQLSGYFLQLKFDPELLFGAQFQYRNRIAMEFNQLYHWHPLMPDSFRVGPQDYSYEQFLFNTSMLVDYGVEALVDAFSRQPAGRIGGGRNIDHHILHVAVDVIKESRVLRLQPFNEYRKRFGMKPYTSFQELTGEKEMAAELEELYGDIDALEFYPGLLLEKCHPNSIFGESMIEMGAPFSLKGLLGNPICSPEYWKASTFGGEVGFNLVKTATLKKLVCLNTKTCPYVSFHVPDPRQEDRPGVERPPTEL
Experimental: The inhibitory potential of synthesized MAK01 was evaluated using a COX-1 inhibitory assay. This utilized a solution of COX-1 enzymes derived from sheep, adhering to previous protocols. The COX-1 enzyme solution was prepared with a specific concentration. The concentration was set at 0.7–0.8 μg per 10 μL. The activation of the enzymes was achieved by taking and mixing 10 μL and 50 μL of the […] enzyme solution and a co-factor solution, respectively. This mixture was then cooled at 4 °C in an ice bucket for a duration of five to six minutes. As for the preparation of the co-factor solution, it began with 0.1 M Tris buffer, which was maintained at a pH of 8.0. To this buffer, 1 mM of hematin was added. Next, 0.9 mM of glutathione was mixed into the solution. Further, the solution was enriched with 0.24 mM of TMPD. After the co-factor solution, specific test samples were prepared. These samples were of a certain concentration and diluted to 20 μL in volume. These test samples were then mixed with 60 μL of the […] enzyme solution. Once the mixture was prepared, it was left undisturbed at room temperature. The duration for this standing period ranged from five to ten minutes. Subsequent to this resting period, 20 μL of 30 mM arachidonic acid was added. This addition served to initiate the reaction within the solution. Post initiation of the reaction, the solution underwent an incubation period. The solution was kept at a temperature of 37 °C. The incubation was allowed to continue for a total of 15 min. The final solution underwent an absorbance measurement. This was performed using a UV–visible spectrophotometer. Specifically, the measurement was made at a 570 nm wavelength. Similarly, the test samples in various concentrations were processed and analyzed using the same procedure. Using the absorbance value over time, the inhibition of the COX-1 enzyme was quantified.
Using the following formulation, the percent inhibition for each sample was calculated. % Inhibition=Abs. test sample−Abs. background/Abs. solvent blank−Abs. background×100

5-LOX = biological target: T2, 5-LOX (Homo sapiens, UniProt P09917); assay: 5-LOX inhibitory assay; format: biochemical
T2 construct: purchased Cayman Chemical Batch No.: A3457
T2 sequence (P09917 1-674): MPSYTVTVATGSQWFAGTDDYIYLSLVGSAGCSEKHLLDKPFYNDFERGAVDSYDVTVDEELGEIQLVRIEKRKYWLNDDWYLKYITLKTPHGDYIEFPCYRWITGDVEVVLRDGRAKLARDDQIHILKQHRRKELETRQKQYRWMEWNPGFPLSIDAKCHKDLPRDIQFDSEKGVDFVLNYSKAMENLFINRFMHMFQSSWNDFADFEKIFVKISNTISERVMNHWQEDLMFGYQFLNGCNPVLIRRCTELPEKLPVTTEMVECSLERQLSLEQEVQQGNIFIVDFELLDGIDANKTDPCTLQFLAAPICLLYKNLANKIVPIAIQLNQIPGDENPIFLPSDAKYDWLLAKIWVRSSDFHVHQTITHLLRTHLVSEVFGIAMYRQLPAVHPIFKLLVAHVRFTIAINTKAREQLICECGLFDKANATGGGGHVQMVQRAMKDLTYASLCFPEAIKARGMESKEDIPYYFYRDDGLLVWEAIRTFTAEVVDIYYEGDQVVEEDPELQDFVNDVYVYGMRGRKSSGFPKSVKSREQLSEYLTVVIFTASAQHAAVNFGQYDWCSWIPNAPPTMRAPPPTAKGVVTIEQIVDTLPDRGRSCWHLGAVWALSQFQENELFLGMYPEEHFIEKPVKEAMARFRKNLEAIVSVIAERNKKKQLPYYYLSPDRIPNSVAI
Experimental: The activity of MAK01 against the 5-LOX enzyme was investigated using a human recombinant form of 5-LOX [47]. To begin the 5-LOX activity assay, a 10,000 U/mL solution of 5-LOX was prepared in a phosphate buffer with a pH of 6.3. A range of concentrations of the test compounds in the same buffer were prepared for assay. As a substrate for 5-LOX, linoleic acid (80 mM) was diluted with ethyl alcohol and used in the assay. The experiment involved mixing the same amount of both the enzyme solution and the test sample, such as mixing 0.25 mL 5-LOX with 0.25 mL of the compound, both dissolved in buffer. The mixing was followed by incubation at 25 °C for 5 to 10 min. Subsequently, 0.10 mL of the linoleic acid solution was added and allowed to incubate for another 5 min. The absorbance was measured using a UV–visible spectrophotometer at a wavelength of 234 nm, and the percent inhibition was calculated based on the absorbance readings. The same procedure was repeated for different concentrations of the test samples. Zileuton, as a reference drug, was used in comparisons. Using the following formula, the percent inhibition for each sample was calculated: % Inhibition=Abs. of Control−Abs. of Sample/Abs. of Control×100

[1] = Solubility observation of the isolated compound; format: physicochemical

Compound: CCOC(=O)C(C)(C)C1CC(=O)N(c2ccccc2)C1=O (centres unmarked) [MAK01, ethyl 2-(2,5-dioxo-1-phenylpyrrolidin-3-yl)-2-methylpropanoate]
- IC50 (COX-1): 1090 µM
- COX-1 percent inhibition (COX-1; 62.50 μg/mL): 32%
- inhibition at 62.5 µg/mL (COX-1; 62.50 μg/mL, read-out: COX-1 percent inhibition): 31.5%
- COX-1 percent inhibition (COX-1; 125 μg/mL): 38%
- inhibition at 125 µg/mL (COX-1; 125 μg/mL, read-out: COX-1 percent inhibition): 37.5%
- COX-1 percent inhibition (COX-1; 250 μg/mL): 46%
- inhibition at 250 µg/mL (COX-1; 250 μg/mL, read-out: COX-1 percent inhibition): 45.8%
- COX-1 percent inhibition (COX-1; 500 μg/mL): 56%
- inhibition at 500 µg/mL (COX-1; 500 μg/mL, read-out: COX-1 percent inhibition): 56.5%
- COX-1 percent inhibition (COX-1; 1000 μg/mL): 65%
- inhibition at 1000 µg/mL (COX-1; 1000 μg/mL, read-out: COX-1 percent inhibition): 64.8%
- IC50 (5-LOX): 363 µM
- 5-LOX percent inhibition (5-LOX; 62.50 μg/mL): 45%
- inhibition at 62.5 µg/mL (5-LOX; 62.50 μg/mL, read-out: 5-LOX percent inhibition): 44.8%
- 5-LOX percent inhibition (5-LOX; 125 μg/mL): 52%
- inhibition at 125 µg/mL (5-LOX; 125 μg/mL, read-out: 5-LOX percent inhibition): 51.9%
- 5-LOX percent inhibition (5-LOX; 250 μg/mL): 60%
- inhibition at 250 µg/mL (5-LOX; 250 μg/mL, read-out: 5-LOX percent inhibition): 60.2%
- 5-LOX percent inhibition (5-LOX; 500 μg/mL): 70%
- inhibition at 500 µg/mL (5-LOX; 500 μg/mL, read-out: 5-LOX percent inhibition): 69.9%
- 5-LOX percent inhibition (5-LOX; 1000 μg/mL): 79%
- inhibition at 1000 µg/mL (5-LOX; 1000 μg/mL, read-out: 5-LOX percent inhibition): 79.4%
- Solubility in organic solvents [1]: soluble in polar organic solvents
